Experimental data: publication PMC11035424 (2024)

Experiments:
[1] = system: dsoligo (12-ss(-)/12-ss(+)) (DNA, duplex) GCGAAACCTCCC/GGGAGGTTTCGC; experiment: UV melting at 260 nm; conditions: K+ (50 mM potassium phosphate); 50 mM potassium phosphate pH 7.0; 1.5 µM DNA, 3.0 µM compound
[2] = system: TA-core (DNA, G4) TAGGGTTAGGGTTAGGGTTAGGG; experiment: CD melting at 265 nm; conditions: K+ (50 mM potassium phosphate); 50 mM potassium phosphate pH 7.0; 1.5 µM DNA, 3.0 µM compound
[3] = system: VEGF (DNA, G4) CGGGGCGGGCCTTGGGCGGGGT; experiment: ITC; conditions: K+ (50 mM potassium phosphate); 50 mM KH2PO4-K2HPO4 pH 7.0, 25 °C
[4] = system: TA-core (DNA, G4) TAGGGTTAGGGTTAGGGTTAGGG; experiment: ITC; conditions: K+ (50 mM potassium phosphate); 50 mM KH2PO4-K2HPO4 pH 7.0, 25 °C
[5] = system: c-myc (DNA, G4) TGAGGGTGGGTAGGGTGGGTAA; experiment: ITC; conditions: K+ (50 mM potassium phosphate); 50 mM KH2PO4-K2HPO4 pH 7.0, 25 °C; abstract misprints exponent as 10^-6
[6] = system: c-myc (DNA, G4) TGAGGGTGGGTAGGGTGGGTAA; experiment: CD melting at 265 nm; conditions: K+ (50 mM potassium phosphate); 50 mM potassium phosphate pH 7.0; 1.5 µM DNA, 3.0 µM compound; printed ≧; printed Tms differ by 6.6
[7] = system: dsoligo (12-ss(-)/12-ss(+)) (DNA, duplex) GCGAAACCTCCC/GGGAGGTTTCGC; experiment: pulldown on streptavidin magnetic beads, gel electrophoresis; conditions: K+ (50 mM potassium phosphate); 5 µM compound, 5 µM DNA, pH 7.0, room temperature
[8] = system: c-myc-mut95 (DNA, single strand) GAGGTATTTCGGGAGGTTTCGCCACCTTCTTCACTCTCTTCACTCTCTTCATAAGCGCCCCTCCCGGGTTCCCCGGTATTCGTGGTGTTCGGAGT; experiment: pulldown on streptavidin magnetic beads, qPCR; conditions: K+ (50 mM potassium phosphate); 50 mM potassium phosphate pH 7.0, room temperature; immobilised compound; 2 fmol DNA
[9] = system: VEGF (DNA, G4) CGGGGCGGGCCTTGGGCGGGGT; experiment: CD melting at 265 nm; conditions: K+ (50 mM potassium phosphate); 50 mM potassium phosphate pH 7.0; 1.5 µM DNA, 3.0 µM compound; printed ≧
[10] = system: c-myc (DNA, G4) TGAGGGTGGGTAGGGTGGGTAA; experiment: absorption titration (383 nm, Stootman fit); conditions: K+ (50 mM potassium phosphate); 50 mM KH2PO4-K2HPO4 pH 7.0; 8 µM compound
[11] = system: c-myc (DNA, G4) TGAGGGTGGGTAGGGTGGGTAA; experiment: pulldown on streptavidin magnetic beads, gel electrophoresis; conditions: K+ (50 mM potassium phosphate); 5 µM compound, 5 µM DNA, pH 7.0, room temperature
[12] = system: c-kit (DNA, G4) AGGGAGGGCGCTGGGAGGAGGG; experiment: ITC; conditions: K+ (50 mM potassium phosphate); 50 mM KH2PO4-K2HPO4 pH 7.0, 25 °C
[13] = system: c-myc120 (DNA, G4) GAGGTATTTCGGGAGGTTTCGCCCCACGCCCTCTGCTTTGGGAACCCGGGAGGGGCGCTTATGGTGAGGGTGGGGAGGGTGGGGAAGGGGGAGGAGAGCGGTATTCGTGGTGTTCGGAGT; experiment: pulldown on streptavidin magnetic beads, qPCR; conditions: K+ (50 mM potassium phosphate); 50 mM potassium phosphate pH 7.0, room temperature; immobilised compound; more than 50% recovery

CN1CCCNC(=O)CC[C@H](NC(=O)CCOCCOCCOCCOCCNC(=O)CCCC[C@@H]2SC[C@@H]3NC(=O)N[C@@H]32)C(=O)NCCCN(C)CCCN2C(=O)c3ccc4c5c(ccc(c35)C2=O)C(=O)N(CCC1)C4=O
ΔTm [1]: 0.1 °C | ΔTm [2]: 4.8 °C | K [3]: 820000 M⁻¹ | K [4]: 2.1e+06 M⁻¹ | K [5]: 3.9e+06 M⁻¹ | ΔTm [6]: > 5.4 °C | binding [7]: no | binding [8]: no | ΔTm [9]: > 7.0 °C | K [10]: 8.9e+06 M⁻¹ | binding [11]: yes | K [12]: 200000 M⁻¹ | binding [13]: yes
